# US20110098288A1, “SULFONAMIDES AS ZAP-70 INHIBITORS” (priority 2008, published 2011)
# Structures can show the parent of a compound that is named as a salt.
# Biological target: T1, ZAP-70 (Homo sapiens, UniProt P43403)
# T1 construct: endogenous in cells; host or cells: cell lysate
# T1 sequence (P43403 1-619): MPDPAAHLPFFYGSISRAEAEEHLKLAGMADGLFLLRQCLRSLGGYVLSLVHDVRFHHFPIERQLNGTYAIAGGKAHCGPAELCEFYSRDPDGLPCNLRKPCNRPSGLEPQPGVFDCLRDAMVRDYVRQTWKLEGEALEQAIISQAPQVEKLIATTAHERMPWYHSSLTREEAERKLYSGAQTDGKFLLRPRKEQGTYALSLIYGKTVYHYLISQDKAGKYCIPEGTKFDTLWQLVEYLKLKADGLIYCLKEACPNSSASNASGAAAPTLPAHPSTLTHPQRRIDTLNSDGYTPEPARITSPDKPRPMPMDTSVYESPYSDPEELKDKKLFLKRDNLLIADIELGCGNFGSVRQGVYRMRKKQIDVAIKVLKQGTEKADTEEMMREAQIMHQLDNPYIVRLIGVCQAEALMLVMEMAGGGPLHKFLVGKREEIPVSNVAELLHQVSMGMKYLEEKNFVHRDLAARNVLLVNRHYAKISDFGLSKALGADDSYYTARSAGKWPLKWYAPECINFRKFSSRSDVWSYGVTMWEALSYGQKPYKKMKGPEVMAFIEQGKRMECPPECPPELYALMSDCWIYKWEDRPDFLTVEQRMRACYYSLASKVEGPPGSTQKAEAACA
# Assay: ZAP-70 kinobeads assay
# Format: binding
# Details: competition with immobilized aminopyrido-pyrimidine ligand 24 in cell lysate; ZAP-70 detected by dot blot
# Procedure: The compounds of the present invention as described in the previous examples can be tested in the ZAP-70 kinobeads assay as described (EP-A 1862802 and WO-A 2007/137867). Briefly, test compounds (at various concentrations) and the affinity matrix with the immobilized aminopyrido-pyrimidine ligand 24 are added to cell lysate aliquots and allowed to bind to the proteins in the lysate sample. After the incubation time the beads with captured proteins are separated from the lysate. Bound proteins are then eluted and the presence ZAP-70 is detected and quantified using a specific antibody in a dot blot procedure and the Odyssey infrared detection system. Conventionally, ZAP-70 kinase activity can be measured using purified or recombinant enzyme in a solution-based assay with protein or peptide substrates (Isakov et al., 1996, J. Biol. Chem. 271(26), 15753-15761; Moffat et al., 1999, Bioorg. Med. Chem. Letters 9, 3351-3356).
row,IC50,SMILES
1,1 to 10 µM,"COc1cc(Nc2ncc(F)c(Nc3ccccc3NS(=O)(=O)c3cccnc3)n2)cc(OC)c1OC [Example 52, N-(2-(5-fluoro-2-(3,4,5-trimethoxyphenylamino)pyrimidin-4-ylamino)phenyl)pyridine-3-sulfonamide]"
2,1 to 10 µM,"COc1cc(Nc2ncc(F)c(Nc3cccc(NS(=O)(=O)CC(F)(F)F)c3)n2)cc(OC)c1OC [Example 60, 2,2,2-trifluoro-N-(3-(5-fluoro-2-(3,4,5-trimethoxyphenylamino)pyrimidin-4-ylamino)phenyl)ethanesulfonamide]"
3,1 to 10 µM,"COc1cc(Nc2ncc(F)c(Nc3ccccc3NS(=O)(=O)CCN(C)C)n2)cc(OC)c1OC [Example 61, 2-(Dimethylamino)-N-(2-(5-fluoro-2-(3,4,5-trimethoxyphenylamino)pyrimidin-4-ylamino)phenyl)ethanesulfonamide]"
4,1 to 10 µM,"COc1cc(Nc2ncc(F)c(Nc3cccc(NS(=O)(=O)CCN(C)C)c3)n2)cc(OC)c1OC [Example 65, 2-(Dimethylamino)-N-(3-(5-fluoro-2-(3,4,5-trimethoxyphenylamino)pyrimidin-4-ylamino)phenyl)ethanesulfonamide]"
5,1 to 10 µM,"COc1cc(Nc2ncc([N+](=O)[O-])c(Nc3ccccc3NS(C)(=O)=O)n2)cc(OC)c1OC [Example 68, N-(2-(5-nitro-2-(3,4,5-trimethoxyphenylamino)pyrimidin-4-ylamino)phenyl)methanesulfonamide]"
6,0.1 to 1 µM,"COc1cc(Nc2ncc(F)c(Nc3ccccc3N(C)S(C)(=O)=O)n2)cc(OC)c1OC [Example 71, N-(2-(5-fluoro-2-(3,4,5-trimethoxyphenylamino)pyrimidin-4-ylamino)phenyl)-N-methylmethanesulfonamide]"
7,0.1 to 1 µM,"COc1cc(Nc2ncc(F)c(Nc3ccccc3NS(C)(=O)=O)n2)ccc1C [Example 73, N-(2-(5-fluoro-2-(3-methoxy-4-methylphenylamino)pyrimidin-4-ylamino)phenyl)methanesulfonamide]"
8,0.1 to 1 µM,"COc1cc(Nc2ncc(F)c(Nc3ccccc3NS(C)(=O)=O)n2)cc(OCCN2CCCC2)c1OC [Example 74, N-(2-(2-(3,4-dimethoxy-5-(2-(pyrrolidin-1-yl)ethoxy)phenylamino)-5-fluoropyrimidin-4-ylamino)phenyl)methanesulfonamide]"
9,< 0.1 µM,"COc1cc(Nc2ncc(F)c(Nc3ccccc3NS(C)(=O)=O)n2)cc(OC)c1OCCN1CCCC1 [Example 75, N-(2-(2-(3,5-dimethoxy-4-(2-(pyrrolidin-1-yl)ethoxy)phenylamino)-5-fluoropyrimidin-4-ylamino)phenyl)methanesulfonamide]"
10,1 to 10 µM,"CNC(=O)c1cccc(Nc2ncc(F)c(Nc3ccccc3NS(C)(=O)=O)n2)c1 [Example 80, 3-(5-fluoro-4-(2-(methylsulfonamido)phenylamino)pyrimidin-2-ylamino)-N-methylbenzamide]"
11,1 to 10 µM,"CCN(CC)C(=O)c1cccc(Nc2ncc(F)c(Nc3ccccc3NS(C)(=O)=O)n2)c1 [Example 81, N,N-diethyl-3-(5-fluoro-4-(2-(methylsulfonamido)phenylamino)pyrimidin-2-ylamino)benzamide]"
12,0.1 to 1 µM,"CS(=O)(=O)Nc1ccccc1Nc1nc(Nc2cccc(C(=O)N3CCCC3)c2)ncc1F [Example 82, N-(2-(5-fluoro-2-(3-(pyrrolidine-1-carbonyl)phenylamino)pyrimidin-4-ylamino)phenyl)methanesulfonamide]"
13,1 to 10 µM,"CS(=O)(=O)Nc1ccccc1Nc1nc(Nc2cccc(C(=O)NC3CC3)c2)ncc1F [Example 83, N-cyclopropyl-3-(5-fluoro-4-(2-(methylsulfonamido)phenylamino)pyrimidin-2-ylamino)benzamide]"
14,0.1 to 1 µM,"CN(C)C(=O)c1cccc(Nc2ncc(F)c(Nc3ccccc3NS(C)(=O)=O)n2)c1 [Example 84, 3-(5-fluoro-4-(2-(methylsulfonamido)phenylamino)pyrimidin-2-ylamino)-N,N-dimethylbenzamide]"
15,1 to 10 µM,"CS(=O)(=O)Nc1ccccc1Nc1nc(Nc2cccc(N3CCCC3)c2)ncc1F [Example 85, N-(2-(5-fluoro-2-(3-(pyrrolidin-1-yl)phenylamino)pyrimidin-4-ylamino)phenyl)methanesulfonamide]"
16,0.1 to 1 µM,"CS(=O)(=O)Nc1ccccc1Nc1nc(Nc2cccc(OCC(=O)O)c2)ncc1F [Example 99, 2-(3-(5-fluoro-4-(2-(methylsulfonamido)phenylamino)pyrimidin-2-ylamino)phenoxy)acetic acid hydrochloride]"
17,0.1 to 1 µM,"CCN(CC)C(=O)COc1cccc(Nc2ncc(F)c(Nc3ccccc3NS(C)(=O)=O)n2)c1 [Example 100, N,N-diethyl-2-(3-(5-fluoro-4-(2-(methylsulfonamido)phenylamino)pyrimidin-2-ylamino)phenoxy)acetamide 2,2,2-trifluoroacetate]"
18,0.1 to 1 µM,"CS(=O)(=O)Nc1ccccc1Nc1nc(Nc2ccccc2)ncc1Br [Example 102, N-(2-(5-bromo-2-(phenylamino)pyrimidin-4-ylamino)phenyl)methanesulfonamide hydrochloride]"
19,0.1 to 1 µM,"CS(=O)(=O)Nc1ccccc1Nc1nc(Nc2cccc(OC(F)F)c2)ncc1Br [Example 103, N-(2-(5-bromo-2-(3-(difluoromethoxy)phenylamino)pyrimidin-4-ylamino)phenyl)methanesulfonamide]"
20,1 to 10 µM,"COc1ccc(Nc2ncc(F)c(Nc3ccccc3N(C)S(C)(=O)=O)n2)cc1 [Example 108, N-(2-(5-fluoro-2-(4-methoxyphenylamino)pyrimidin-4-ylamino)phenyl)-N-methylmethanesulfonamide]"
21,0.1 to 1 µM,"COc1ccc(Nc2ncc(F)c(Nc3ccccc3N(C)S(C)(=O)=O)n2)cc1OC [Example 109, N-(2-(2-(3,4-dimethoxyphenylamino)-5-fluoropyrimidin-4-ylamino)phenyl)-N-methylmethanesulfonamide]"
22,0.1 to 1 µM,"CN(c1ccccc1Nc1nc(Nc2ccc(OCCN3CCCCC3)cc2)ncc1F)S(C)(=O)=O [Example 110, N-(2-(5-fluoro-2-(4-(2-(piperidin-1-yl)ethoxy)phenylamino)pyrimidin-4-ylamino)phenyl)-N-methylmethanesulfonamide]"
23,0.1 to 1 µM,"CN(c1ccccc1Nc1nc(Nc2ccc(OCCN3CCOCC3)cc2)ncc1F)S(C)(=O)=O [Example 111, N-(2-(5-fluoro-2-(4-(2-morpholinoethoxy)phenylamino)pyrimidin-4-ylamino)phenyl)-N-methylmethanesulfonamide]"
24,0.1 to 1 µM,"COCCOc1cccc(Nc2ncc(F)c(Nc3cccc(C)c3NS(C)(=O)=O)n2)c1 [Example 115, N-(2-(5-fluoro-2-(3-(2-methoxyethoxy)phenylamino)pyrimidin-4-ylamino)-6-methylphenyl)methanesulfonamide]"
25,0.1 to 1 µM,"COc1cc(Nc2ncc(F)c(Nc3cccc(C)c3NS(C)(=O)=O)n2)cc(OCC2CC2)c1OC [Example 120, N-(2-(2-(3-(cyclopropylmethoxy)-4,5-dimethoxyphenylamino)-5-fluoropyrimidin-4-ylamino)-6-methylphenyl)methanesulfonamide]"
26,1 to 10 µM,"Cc1cccc(Nc2nc(Nc3cccc(OC(C)C)c3)ncc2F)c1NS(C)(=O)=O [Example 121, N-(2-(5-fluoro-2-(3-isopropoxyphenylamino)pyrimidin-4-ylamino)-6-methylphenyl)methanesulfonamide]"
27,1 to 10 µM,"CCCOc1cccc(Nc2ncc(F)c(Nc3cccc(C)c3NS(C)(=O)=O)n2)c1 [Example 122, N-(2-(5-fluoro-2-(3-propoxyphenylamino)pyrimidin-4-ylamino)-6-methylphenyl)methanesulfonamide]"
28,< 0.1 µM,"CS(=O)(=O)Nc1ccccc1Nc1nc(Nc2cccc(OCCC3CCCN3)c2)ncc1Cl (stereo not drawn) [Example 131, N-(2-(5-chloro-2-(3-(2-(pyrrolidin-2-yl)ethoxy)phenylamino)pyrimidin-4-ylamino)phenyl)methanesulfonamide]"
29,< 0.1 µM,"CS(=O)(=O)Nc1ccccc1Nc1nc(Nc2cccc(OCCN3CCNCC3)c2)ncc1Cl [Example 133, N-(2-(5-chloro-2-(3-(2-(piperazin-1-yl)ethoxy)phenylamino)pyrimidin-4-ylamino)phenyl)methanesulfonamide trifluoroacetate]"

row,SMILES,IC50
1,"COc1cc(Nc2ncc(F)c(Nc3cccc(C)c3NS(C)(=O)=O)n2)cc(OCC(C)C)c1OC [Example 119, N-(2-(5-fluoro-2-(3-isobutoxy-4,5-dimethoxyphenylamino)pyrimidin-4-ylamino)-6-methylphenyl)methanesulfonamide]",0.1 to 1 µM
